Source: US8557308B2, “Andrographis paniculata extract” (Nutrition Science Partners Limited, priority 2007, dated 2013)

System: mildly to moderately active ulcerative colitis
Experiment: Randomized, double-dummy, active controlled 8-week clinical trial in ulcerative colitis
Format: in vivo, human
Conditions: week 8
Method: 120 patients with colonoscopy-confirmed mildly to moderately active ulcerative colitis were assigned to two groups (60 patients/group). […] All other medications were excluded. The therapeutic effects were assessed biweekly using a scale similar to the partial Mayo Scoring System, and the clinical symptom score reduction (≧50% reduction in symptoms) was calculated. Scores were then retrospectively calculated using the standard partial Mayo scores (PMS), clinical response (improvement ≧2 points or final score of 0) and remission (≦1 PMS score at week 8). Colonoscopies at the beginning and at the end of treatment were rated with a modified Baron score, and biopsies taken during colonoscopy were graded histologically with a scale of 0-3.

Structure (SMILES): Nc1ccc(O)c(C(=O)O)c1 [Etiasa, 5-amino-2-hydroxybenzoic acid]
- patients with Baron scores reduced by at least two grades (colonoscopy): 42%
- clinical response rate (partial Mayo score improvement ≧2 points or final score of 0): 58%
